What was measured:
[1] = target: T1, hPPARγ (Homo sapiens, UniProt P37231); experiment: PPAR receptor transactivation assay, human PPARγ; format: cell-based
T1 construct: expressed in transfected cells; host or cells: Jump-In GripTite HEK293
T1 sequence (P37231 238-503 limits assumed): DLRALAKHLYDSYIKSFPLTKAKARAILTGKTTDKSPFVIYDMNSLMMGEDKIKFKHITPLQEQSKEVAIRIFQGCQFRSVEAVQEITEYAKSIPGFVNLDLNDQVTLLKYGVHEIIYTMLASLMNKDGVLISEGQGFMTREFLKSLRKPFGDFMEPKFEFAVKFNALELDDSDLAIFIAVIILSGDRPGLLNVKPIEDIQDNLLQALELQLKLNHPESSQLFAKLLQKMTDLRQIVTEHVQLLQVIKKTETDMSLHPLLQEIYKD
Method: Compound 1 was tested on all three human PPAR subtypes (hPPAR): hPPARα, hPPARγ, and hPPARδ. All assays were repeated at least three times for each subtype.
The genes of interest were synthesized and cloned into an appropriate Jump-In™ retargeting vector following the User Guide of the Jump-In™ T-REx™ HEK293 Retargeting Kit (ThermoFisher Catalog No A15008). For example, the vector will be used to transfect and retarget the Jump-In™ HEK293 GripTite™ parental cell line. Stable pools will be antibiotic-selected for about 21 days and tested for target gene expression by functional assay.
Jump-In™ GripTite™ HEK293 parental cells were plated at 60-80% confluency in a T-75 flask in growth medium without antibiotics and transfected with a 1:1 ratio of expression construct and R4 integrase expression construct (20 μg DNA total) using Lipofectamine® LTX (50 μL) and PLUS™ Reagent (20 μL). Following a 48 hours incubation, cells were selected with 600 μg/mL Geneticin® and 10 μg/mL Blasticidin for ˜21 days in growth medium.
Jump-In™ GripTite™ HEK293 rPPAR Alpha, Delta or Gamma UAS-bla-Gal4 cell pools were plated in a 384-well plate format (20,000 cells per well) in OptiMeM without FBS in replicates (n=4). Cells were allowed to adhere for 8 hours before addition of Compound 1 (1 mM top concentration, 3-fold dilutions, 10-point titration). After 16 hours, the cells were loaded with LiveBLAzer®, a fluorescent BLA substrate that gives a blue/green readout of expressing/non-expressing cells, respectively. The blue/green readout was measured on a fluorescent plate reader (Tecan Safire II).

[2] = target: T2, PPARα (Mus musculus, UniProt P23204); experiment: PPAR receptor transactivation assay, mouse PPARα; format: cell-based
T2 construct: expressed in transfected cells; host or cells: Jump-In GripTite HEK293
T2 sequence (P23204 239-466 limits assumed): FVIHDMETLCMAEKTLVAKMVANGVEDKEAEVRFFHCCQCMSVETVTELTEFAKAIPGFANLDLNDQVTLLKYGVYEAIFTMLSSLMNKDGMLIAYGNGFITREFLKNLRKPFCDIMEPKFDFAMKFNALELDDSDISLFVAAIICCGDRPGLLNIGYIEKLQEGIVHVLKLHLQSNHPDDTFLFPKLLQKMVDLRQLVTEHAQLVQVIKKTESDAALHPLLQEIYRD

[3] = target: T3, PPARδ (Mus musculus, UniProt P35396); experiment: PPAR receptor transactivation assay, mouse PPARδ; format: cell-based
T3 construct: expressed in transfected cells; host or cells: Jump-In GripTite HEK293
T3 sequence (P35396 210-438 limits assumed): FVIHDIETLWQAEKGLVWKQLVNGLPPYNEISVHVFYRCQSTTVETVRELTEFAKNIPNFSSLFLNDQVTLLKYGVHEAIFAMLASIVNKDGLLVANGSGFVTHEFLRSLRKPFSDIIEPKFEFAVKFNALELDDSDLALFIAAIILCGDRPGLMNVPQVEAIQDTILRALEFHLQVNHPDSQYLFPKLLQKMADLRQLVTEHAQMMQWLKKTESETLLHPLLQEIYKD

[4] = test system: rat muscle cell lines; experiment: fatty acid oxidation in rat muscle cell line; format: cell-based; conditions: in vitro
[5] = test system: PPARδ regulated genes (CPT1b, PDK4, PGC-1α); experiment: in vivo gene expression in mouse muscle, 7-day study; conditions: male C57BL/6 mice, oral 30 mg/kg once daily 7 days, quadriceps muscle 4 h after final dose
Method: Male C57BL/6 mice were administered an oral dose of Compound 1 at 30 mg/kg, once daily for 7 consecutive days. Four hours following the final dose administration on day 7, all mice were euthanized, and two samples of quadriceps muscle were dissected from the right and left limbs.

## Cc1cc(OC/C=C(/c2ccc(F)cc2)c2ccc(C#CCN3CCOCC3)cc2)ccc1OCC(=O)O [Compound 1, (E)-[4-[3-(4-Fluorophenyl)-3-[4-[3-(morpholin-4-yl)propynyl]phenyl]allyloxy]-2-methyl-phenoxy]acetic acid]
[1]; Human PPARγ
  EC50: > 10000 nM
[1]; in some cases
  activity on PPARγ in transactivation assays: negligible activity
  agonist type at PPARγ: partial agonist
[2]
  EC50: > 10000 nM
[3]
  EC50: 240 nM
[4]
  fatty acid oxidation: dose-dependent increase
[5]
  expression patterns of PPARδ regulated genes (CPT1b, PDK4, PGC-1α): altered the expression patterns

From patent US20220117972A1, “USE OF PPAR-DELTA AGONISTS IN THE TREATMENT OF MITOCHONDRIAL MYOPATHY” (Reneo Pharmaceuticals, Inc., priority 2019, published 2022)
